Measured values from patent publication EP2386565A2, “Compounds and methods to inhibit or augment an inflammatory response” (Cambridge Enterprise Ltd., priority 1999, dated 2000).
Positions of bridges follow the written chain, without caps; N, C: chain ends. Non-standard residues stand in square brackets, D forms with d. Residues, ends and D or L forms follow the SMILES beside them. No end group written: not given here.

Experiments:
[1] = test system: lung cells of normal mice; assay: Cell number and cell type in the lungs of normal mice; assay type: in vivo
Protocol: To determine whether increasing doses of CRD-Leu4Ile11Cys13 peptide 3(3-12)[MCP-1] alters the cell number and type of cell within the lungs of normal mice, mice were injected intravenously, intravenously and intratracheally, or intratracheally alone with CRD-Leu4Ile11Cys13 peptide 3(3-12)[MCP-1]. Mice were sacrificed at 20-24 hours post injection. Lungs were collected for isolation of cells, which were subsequently counted and characterized by surface staining for CD3, CD4, CD8, B220, and Mac-1.

[2] = test system: MCP-1 binding to heparin-coated agarose beads; assay: Competition with 125I-MCP-1 for heparin-coated agarose beads; settings: 10^-11 to 10^-4 M
Excerpt: Chemokines bind to glycosaminoglycans on the cell surface, which may facilitate chemokine receptor binding and subsequent signaling. […] This was followed by a monophasic displacement curve at concentrations of approximately 10^-7 to 10^-5 M MCP-1.

[3] = test system: chemokine-induced THP-1 migration; assay: THP-1 trans-well migration assay, several chemokines together (averages, selectivity, pan-chemokine statements); assay type: cell-based, human; settings: for effect on chemokine-induced THP-1 migration (in words): MCP-1, MIP1α, IL-8 and SDF1α
Protocol: To determine whether an agent inhibits a chemokine-induced activity, such as macrophage recruitment, varying amounts of the agent are mixed with cells in the presence of a known chemoattractant. […] Chemokine (such as MCP-1, MIP1α, IL8 or SDF-1α), at a concentration known to cause significant migration of THP-1 cells in the trans-well migration assay, is placed in the lower compartment (Figure 1). Cells are then incubated at 37°C for a period sufficient to allow migration, e.g., 4 hours. After incubation, the cells are gently removed from the top of the filter with a pipette, 20 µl of 20 mM EDTA in simple PBS is added into each top well, and incubated for 20 minutes at 4°C. The filter is carefully flushed with media using a gentle flow, and removed. […] The media is carefully aspirated from each well, and the converted dye is solubilized by 20 µl of DMSO.
Chemotaxis was induced in a 96-well disposable chemotaxis chamber fitted with a 5 µM polycarbonate filter (PVP free, ChemoTX, Neuroprobe Inc., Cabin John). […] The framed filter was aligned with the holes in the corner of the filter frame and placed over the wells.
Peptides were dissolved in Milli Q water and then serially diluted in culture medium. In most cases, the serially diluted peptides were added to the upper compartment of the chemotaxis chamber. The chamber was incubated at 37°C in a humidified atmosphere of 5% CO2 for 4 hours.
After incubation, the cells were gently removed from the top of the filter with a pipette, 20 µl of 20 mM EDTA in PBS was added into each top well, and the mixture was incubated for 20 minutes at 4°C. The filter was then carefully flushed with media using a gentle flow, and removed. […] The curve was based on a two-fold dilution series of THP-1 cells (top standard 100,000 cells in 29 µl). […] The media was carefully aspirated from each well, and the converted dye was solubilized by 20 µl of DMSO.
Representative chemokines included […] ("CC"), MIP-1α and RANTES, and two alpha-chemokines ("CXC"), IL-8 and SDF-1α. Additionally, to determine the specificity ofpeptide 3(1-12)[MCP-1]
The number of pluses is a qualitative indicating of the activity of each peptide in each assay.

α2-adrenoceptors = assay: Competition of 3H-RS-79948-197 binding to membranes; settings: 100 µM highest concentration tested
Protocol: For α2-adrenoreceptor binding, membranes (A-213, RBI/Sigma)) are diluted into binding buffer (75 mM Tris pH 7.4, 12.5 mM MgCl2 and 2 mM EDTA). For example, 10 µl of membranes are diluted in 500 µl of binding buffer (i.e., 1:50 dilution), which is aliquoted into tubes. Cold competitor or test competitor is added, for example, 5 µl of 1 mM oxymetazoline (O-110, RBI/Sigma, 1 mM stock in MilliQ water). Radioligand is then added (^3H-RS-79948-197, TRK 1036, Amersham, 50 µCi in 250 µl, 2.1 µM at 95 Ci/mmol). For competition studies, 1 nM is used. A 100x stock (i.e., 100 nM) is made by diluting the commercial stock 1:20 in binding buffer, and 5 µl is added to every tube. Control tubes have radioligand but no membranes. The mixtures are vortexed, then spun very briefly. The mixtures are then incubated for 1 hour at 27°C in a water bath. The mixture is filtered through GF/C filters over a vacuum. Each filter is pre-soaked in polyethyleneimine (0.3% in water; add 1 ml of 10% stock (P-261; RBI/Sigma) to 33 ml of MilliQ water). The tubes are washed with 2-3 ml of wash buffer (50 mM Tris pH 7.4) and the wash filtered. The filters are then rinsed with 3 × 5 ml of wash buffer, air dried, placed in a scintillation vial and 4.5 ml of scintillant added. The activity on the filter is then determined.

gp120 = settings: ns = not significant; >100 = ED50 not determined
Protocol: Binding assays. Cells (either Jurkat T-cells or THP-1 cells) were grown in RPMI 1640 medium supplemented with 10% fetal calf serum, 2 mM glutamine, 20 µM β-mercaptoethanol, 100 U/ml penicillin and 100 µg/ml streptomycin and maintained between 2 × 10^5 and 1 × 10^6 cells/ml. Prior to performing a binding assay, cells were spun out (100 × g; 4 minutes) and washed 3 times in ice-cold PBS. A volume of cell suspension in PBS containing 10^6 cells (for Jurkat cells) or 4 × 10^5 cells (for THP-1 cells) was pipetted into each well of a V-bottom 96-well plate (Gibco BRL) and spun out (100 x g; 4 minutes). Triplicate wells were then resuspended in 100 µl binding medium (PBS pH 7.2 containing 0.1% fatty acid-free bovine serum albumin (BSA)) containing labeled peptide in the presence or absence of various concentrations of unlabeled peptide. The plate was then incubated on ice for 90 minutes. Cells were washed 3 times with 380 µl of ice-cold PBS, spinning out the cells each time (100 × g; 4 minutes), and resuspended in 100 µl binding medium containing streptavidin-peroxidase (Amersham International) at 1:1000 dilution. Cells were incubated for a further 15 minutes on ice to allow labeling of any bound biotinylated peptide, then washed 4 times as above. Cells were then incubated with 200 µl TMB substrate (K-Blue, Bionostics) for 20 minutes at room temperature, and the reaction stopped by addition of 50 µl 2 M HCl. The plate was spun (3,000 × g; 3 minutes) and 200 µl of the colored product was transferred to an empty 96-well ELISA plate and the absorbance at 450 nm determined. For each assay, the absorbance of a blank reaction (no peptide added) was subtracted from all readings before further analysis.
Binding experiments with labeled peptide 2 were performed with 10 nM labeled peptide in each reaction.

HIV = assay type: cell-based; settings: ns = not significant

CC[C@@H](C)[C@H]1NC(=O)[C@@H](CCC(N)=O)NC(=O)[C@H](N)CSSC[C@H](C(N)=O)NC(=O)[C@@H](CC(C)C)NC(=O)[C@@H](CC(=O)O)NC(=O)[C@H]2CCCN2C(=O)[C@@H](CCCCN)NC(=O)[C@@H](CCC(N)=O)NC(=O)[C@@H](CCCCN)NC(=O)[C@@H](Cc2c[nH]c3ccccc23)NC1=O (H-[dC][dQ][dI][dW][dK][dQ][dK][dP][dD][dL][dC]-NH2; disulfide 1-11)
percentages of CD3, CD4, and B220 cells in lung of normal mice (in words) ([1]; high dose, all routes of administration): significantly reduced | total number of cells isolated from the lungs of normal mice (in words) ([1]; low dose (0.3 µg IV and/or 10 µg IT) compared to PBS): higher | displacement of MCP-1 from heparin-coated agarose beads (in words) [2]: did not result in displacement | effect on chemokine-induced THP-1 migration (in words) [3]: very similar ED50s | Average ED50 ([3]; average inhibitory ED50 for THP-1 migration induced by each of the chemokines): 0.1 µM | ED50 for competition of RS79943 binding to α2-adrenoceptors (α2-adrenoceptors): >100 µM

CC[C@H](C)[C@H](NC(=O)[C@H](C)NC(=O)[C@H](CC(=O)O)NC(=O)[C@@H]1CCCN1C(=O)[C@H](CCC(N)=O)NC(=O)[C@H](C)N)C(=O)N[C@@H](CC(N)=O)C(=O)N[C@@H](C)C(=O)N1CCC[C@H]1C(=O)N[C@H](C(=O)N[C@H](C(=O)N[C@@H](CS)C(=O)N[C@@H](CS)C(=O)O)[C@@H](C)O)C(C)C [Peptide 1] (H-AQPDAINAPVTCC-OH; N-terminus and C-terminus assumed)
% inhibition at 100 µM of migration induced by any of the chemokines tested ([3]; 100 µM, CC and CXC chemokines): ≤ 20% | effect on chemokine-induced THP-1 migration (in words) [3]: no significant effect

=cvaekpsksstirrysc= ([dC][dV][dA][dE][dK][dP][dS][dK][dS][dS][dT][dI][dR][dR][dY][dS][dC]; bridge 1-17 (inferred); not fully specified; printed as =cvaekpsksstirrysc=)
gp120 ED-50 (µM) (gp120): ns | % virus inhibition (HIV): ns

CSYRRITSSKSPKEAVC
gp120 ED-50 (gp120): >100 µM | % virus inhibition (HIV): ns
